In this assay the target is T1, mutant B-RAF (Homo sapiens, UniProt P15056, V600E).
T1 construct: purchased Upstate (Charlottesville, Va.)
The experiment in a line: RAF biochemical assay (MEK-1 phosphorylation, anti-phospho MEK1/2 detection). As to conditions: for inhibition at 10 µM: read-out: Mutant B-RAF % inhibition. The method, boiled down:
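Detection is by ELISA: after a 30 min room-temperature reaction, plate-captured GST-MEK-1 is probed with anti-phospho MEK1/2, then an AP-tagged secondary antibody with fluorescent Attophos read-out.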

What is called IC50 is the midpoint of a concentration-inhibition curve. For orientation: inhibition means the relative decrease from the control value, in per cent.

Where two headings read alike, the source gives them in different places.

T1 sequence (P15056 whole entry V600E): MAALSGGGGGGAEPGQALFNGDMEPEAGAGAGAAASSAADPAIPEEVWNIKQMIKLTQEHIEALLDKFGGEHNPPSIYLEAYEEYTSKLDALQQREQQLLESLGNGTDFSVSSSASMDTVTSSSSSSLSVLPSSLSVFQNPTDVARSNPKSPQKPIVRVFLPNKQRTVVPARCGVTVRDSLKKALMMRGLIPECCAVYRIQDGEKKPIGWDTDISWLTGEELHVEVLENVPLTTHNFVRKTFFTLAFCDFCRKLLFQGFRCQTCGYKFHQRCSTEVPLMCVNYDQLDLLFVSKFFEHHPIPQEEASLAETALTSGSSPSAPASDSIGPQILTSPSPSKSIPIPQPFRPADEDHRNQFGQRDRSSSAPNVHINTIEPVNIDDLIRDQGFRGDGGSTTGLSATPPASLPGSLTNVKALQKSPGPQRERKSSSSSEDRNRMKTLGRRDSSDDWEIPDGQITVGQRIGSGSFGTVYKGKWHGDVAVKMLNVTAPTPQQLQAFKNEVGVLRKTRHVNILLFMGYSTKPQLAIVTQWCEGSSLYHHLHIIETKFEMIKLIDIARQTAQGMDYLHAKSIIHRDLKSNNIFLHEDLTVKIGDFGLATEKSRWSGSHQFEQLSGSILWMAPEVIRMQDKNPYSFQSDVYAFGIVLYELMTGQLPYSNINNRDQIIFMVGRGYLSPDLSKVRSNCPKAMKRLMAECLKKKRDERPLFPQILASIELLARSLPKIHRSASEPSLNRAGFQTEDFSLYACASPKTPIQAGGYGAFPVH

As to `CC(C)(N)C(=O)N1CCC(Nc2nccc(-c3c(-c4ccc(F)cc4)nc4occn34)n2)CC1` [Example 191, N-[1-(2-amino-2-methylpropanoyl)piperidin-4-yl]-4-[6-(4-fluorophenyl)imi-dazo[2,1-b][1,3]oxazol-5-yl]pyrimidin-2-amine], half-maximal inhibition (IC50) was put at 3.76 µM.

For `O=C([C@@H]1CCCN1)N1CCC(Nc2nccc(-c3c(-c4ccc(F)cc4)nc4occn34)n2)CC1` [Example 192, 4-[6-(4-fluorophenyl)imidazo[2,1-b][1,3]oxazol-5-yl]-N-(1-L-prolylpiperidin-4-yl)pyrimidin-2-amine], under “read-out: Mutant B-RAF IC50”, the IC50 stood at 1.45 µM.

In the case of `O=C(Nc1ccc(F)c(F)c1)N1CCC(Nc2nccc(-c3c(-c4ccc(F)cc4)nc4occn34)n2)CC1` [Example 193, N-(3,4-difluorophenyl)-4-({4-[6-(4-fluorophenyl)imidazo[2,1-b][1,3]oxazol-5-yl]pyrimidin-2-yl}amino)piperidine-1-carboxamide], where the note is “read-out: Mutant B-RAF IC50”, the IC50 is 1.23 µM.

As for `O=C(NCc1ccc(F)cc1)N1CCC(Nc2nccc(-c3c(-c4ccc(F)cc4)nc4occn34)n2)CC1` [Example 194, N-(4-fluorobenzyl)-4-({4-[6-(4-fluorophenyl)imidazo[2,1-b][1,3]oxazol-5-yl]pyrimidin-2-yl}amino)piperidine-1-carboxamide], the inhibition at 10 µM was 55%.

On to `C[C@H](NC(=O)N1CCC(Nc2nccc(-c3c(-c4ccc(F)cc4)nc4occn34)n2)CC1)c1ccccc1` [Example 195, 4-({4-[6-(4-fluorophenyl)imidazo[2,1-b][1,3]oxazol-5-yl]pyrimidin-2-yl}amino)-N-[(1S)-1-phenylethyl]piperidine-1-carboxamide], for which the inhibition at 10 µM came to 56%.

For `N[C@@H](CCC(=O)O)C(=O)N1CCC(Nc2nccc(-c3c(-c4ccc(F)cc4)nc4occn34)n2)CC1` [Example 196, (4S)-4-amino-5-[4-({4-[6-(4-fluorophenyl)imidazo[2,1-b][1,3]oxazol-5-yl]pyrimidin-2-yl}amino)piperidin-1-yl]-5-oxopentanoic acid], under “read-out: Mutant B-RAF IC50”, the IC50 stood at 3.32 µM.

Take `O=S(=O)(c1ccccc1)N1CCC(Nc2nccc(-c3c(-c4ccc(F)cc4)nc4occn34)n2)CC1` [Example 197, 4-[6-(4-fluorophenyl)imidazo[2,1-b][1,3]oxazol-5-yl]-N-[1-(phenylsulfonyl)piperidin-4-yl]pyrimidin-2-amine]: the IC50 (read-out: Mutant B-RAF IC50) is 0.168 µM.

For `Cc1ccc(S(=O)(=O)N2CCC(Nc3nccc(-c4c(-c5ccc(F)cc5)nc5occn45)n3)CC2)cc1` [Example 198, 4-[6-(4-fluorophenyl)imidazo[2,1-b][1,3]oxazol-5-yl]-N-{1-[(4-methylphenyl)sulfonyl]piperidin-4-yl}pyrimidin-2-amine], where the note is “read-out: Mutant B-RAF IC50”, the IC50 was found to be 0.218 µM.

`O=S(=O)(c1ccc(Cl)cc1)N1CCC(Nc2nccc(-c3c(-c4ccc(F)cc4)nc4occn34)n2)CC1` [Example 199, N-{1-[(4-chlorophenyl)sulfonyl]piperidin-4-yl}-4-[6-(4-fluorophenyl)imidazo[2,1-b][1,3]oxazol-5-yl]pyrimidin-2-amine]: under “read-out: Mutant B-RAF IC50”, the IC50 stood at 0.092 µM.

As to `COc1ccc(S(=O)(=O)N2CCC(Nc3nccc(-c4c(-c5ccc(F)cc5)nc5occn45)n3)CC2)cc1` [Example 200, 4-[6-(4-fluorophenyl)imidazo[2,1-b][1,3]oxazol-5-yl]-N-{1-[(4-methoxyphenyl)sulfonyl]piperidin-4-yl}pyrimidin-2-amine], under “read-out: Mutant B-RAF IC50”, the IC50 was found to be 0.115 µM.

Regarding `CC(C)c1ccc(S(=O)(=O)N2CCC(Nc3nccc(-c4c(-c5ccc(F)cc5)nc5occn45)n3)CC2)cc1` [Example 201, 4-[6-(4-fluorophenyl)imidazo[2,1-b][1,3]oxazol-5-yl]-N-{1-[(4-isopropylphenyl)sulfonyl]piperidin-4-yl}pyrimidin-2-amine], the IC50 (read-out: Mutant B-RAF IC50) came out at 0.42 µM.

For `O=S(=O)(c1cccc(C(F)(F)F)c1)N1CCC(Nc2nccc(-c3c(-c4ccc(F)cc4)nc4occn34)n2)CC1` [Example 202, 4-[6-(4-fluorophenyl)imidazo[2,1-b][1,3]oxazol-5-yl]-N-(1-{[3-(trifluoromethyl)phenyl]sulfonyl}piperidin-4-yl)pyrimidin-2-amine], the IC50 (read-out: Mutant B-RAF IC50) worked out at 0.84 µM.

As for `O=S(=O)(c1ccc(OC(F)(F)F)cc1)N1CCC(Nc2nccc(-c3c(-c4ccc(F)cc4)nc4occn34)n2)CC1` [Example 203, 4-[6-(4-fluorophenyl)imidazo[2,1-b][1,3]oxazol-5-yl]-N-(1-{[4-(trifluoromethoxy)phenyl]sulfonyl}piperidin-4-yl)pyrimidin-2-amine], the IC50 (read-out: Mutant B-RAF IC50) stood at 0.521 µM.

Regarding `O=S(=O)(c1ccc(F)c(Cl)c1)N1CCC(Nc2nccc(-c3c(-c4ccc(F)cc4)nc4occn34)n2)CC1` [Example 204, N-{1-[(3-chloro-4-fluorophenyl)sulfonyl]piperidin-4-yl}-4-[-6-(4-fluorophenyl)imidazo[2,1-b][1,3]oxazol-5-yl]pyrimidin-2-amine], the IC50 (read-out: Mutant B-RAF IC50) was 0.541 µM.

Consider `O=S(=O)(c1cc(Cl)cc(Cl)c1)N1CCC(Nc2nccc(-c3c(-c4ccc(F)cc4)nc4occn34)n2)CC1` [Example 205, N-{1-[(3,5-dichlorophenyl)sulfonyl]piperidin-4-yl}-4-[6-(4-fluorophenyl)imidazo[2,1-b][1,3]oxazol-5-yl]pyrimidin-2-amine], for which the IC50 (read-out: Mutant B-RAF IC50) was found to be 0.981 µM.

For the molecule `O=S(=O)(c1cccc(Cl)c1)N1CCC(Nc2nccc(-c3c(-c4ccc(F)cc4)nc4occn34)n2)CC1` [Example 206, N-{1-[(3-chlorophenyl)sulfonyl]piperidin-4-yl}-4-[6-(4-fluorophenyl)imidazo[2,1-b][1,3]oxazol-5-yl]pyrimidin-2-amine], where the note is “read-out: Mutant B-RAF IC50”, the IC50 came to 0.329 µM.

Consider `O=S(=O)(c1cc(C(F)(F)F)cc(C(F)(F)F)c1)N1CCC(Nc2nccc(-c3c(-c4ccc(F)cc4)nc4occn34)n2)CC1` [Example 207, N-(1-{[3,5-bis(trifluoro-methyl)phenyl]sulfonyl}piperidin-4-yl)-4-[6-(4-fluorophenyl)imidazo[2,1-b][1,3]oxazol-5-yl]pyrimidin-2-amine], for which the 50% inhibitory concentration (IC50) (read-out: Mutant B-RAF IC50) was 0.027 µM.

For `COc1cccc(-c2nc3sccn3c2-c2ccnc(NC3CCNCC3)n2)c1` [Example 208, 4-[6-(3-methoxyphenyl)imidazo[2,1-b][1,3]thiazol-5-yl]-N-piperidin-4-ylpyrimidin-2-amine], the IC50 (read-out: Mutant B-RAF IC50) was found to be 2.93 µM.

As to `Nc1c(Cl)c(Cl)nc(C(=O)N2CCC(Nc3nccc(-c4c(-c5ccc(F)cc5)nc5occn45)n3)CC2)c1Cl` [Example 209, N-{1-[(4-amino-3,5,6-trichloropyridin-2-yl)carbonyl]piperidin-4-yl}-4-[6-(4-fluorophenyl)imidazo[2,1-b][1,3]oxazol-5-yl]pyrimidin-2-amine], the inhibition at 10 µM came to 49%.

Take `COc1cccc(OC)c1C(=O)N1CCC(Nc2nccc(-c3c(-c4ccc(F)cc4)nc4occn34)n2)CC1` [Example 210, N-[1-(2,6-dimethoxybenzoyl)piperidin-4-yl]-4-[6-(4-fluorophenyl)imidazo[2,1-b][1,3]oxazol-5-yl]pyrimidin-2-amine]: the inhibition at 10 µM was 38%.

Turning to `CC(=O)NCC(=O)N1CCC(Nc2nccc(-c3c(-c4ccc(F)cc4)nc4occn34)n2)CC1` [Example 211, N-{2-[4-({4-[6-(4-fluorophenyl)imidazo[2,1-b][1,3]oxazol-5-yl]pyrimidin-2-yl}amino)piperidin-1-yl]-2-oxoethyl}acetamide], the inhibition at 10 µM is 29%.

In the case of `CC(=O)NC(CO)C(=O)N1CCC(Nc2nccc(-c3c(-c4ccc(F)cc4)nc4occn34)n2)CC1` (centres unmarked) [Example 212, N-[2-[4-({4-[6-(4-fluorophenyl)imidazo[2,1-b][1,3]oxazol-5-yl]pyrimidin-2-yl}amino)piperidin-1-yl]-1-(hydroxymethyl)-2-oxoethyl]acetamide], the inhibition at 10 µM came out at 43%.

For the molecule `CCNC(=O)N1CCC(Nc2nccc(-c3c(-c4cccc(OC)c4)nc4sccn34)n2)CC1` [Example 213, N-ethyl-4-({4-[6-(3-methoxyphenyl)imidazo[2,1-b][1,3]thiazol-5-yl]pyrimidin-2-yl}amino)piperidine-1-carboxamide], the IC50 (read-out: Mutant B-RAF IC50) was 2.04 µM.

For `COc1cccc(-c2nc3sccn3c2-c2ccnc(NC3CCN(S(=O)(=O)c4ccc(F)cc4)CC3)n2)c1` [Example 214, N-{1-[(4-fluorophenyl)sulfonyl]piperidin-4-yl}-4-[6-(3-methoxyphenyl)imidazo[2,1-b][1,3]thiazol-5-yl]pyrimidin-2-amine], under “read-out: Mutant B-RAF IC50”, the IC50 was determined as 0.392 µM.

For `Cc1ccnc(SCC(=O)N2CCC(Nc3nccc(-c4c(-c5ccc(F)cc5)nc5occn45)n3)CC2)n1` [Example 215, 4-[6-(4-fluorophenyl)imidazo[2,1-b][1,3]oxazol-5-yl]-N-(1-{[(4-methylpyrimidin-2-yl)thio]acetyl}piperidin-4-yl)pyrimidin-2-amine], the inhibition at 10 µM is 40%.

As to `COc1cccc(-c2nc3sccn3c2-c2ccnc(NC3CCN(C(=O)Nc4ccc(N(C)C)cc4)CC3)n2)c1` [Example 216, N-[4-(dimethylamino)phenyl]-4-({4-[6-(3-methoxyphenyl)imidazo[2,1-b][1,3]thiazol-5-yl]pyrimidin-2-yl}amino)piperidine-1-carboxamide], the inhibition at 10 µM was determined as 58%.

For `O=S(=O)(c1ccc(F)cc1)N1CCC(Nc2nccc(-c3c(-c4ccc(F)c(F)c4)nc4sccn34)n2)CC1` [Example 217, 4-[6-(3,4-difluorophenyl)imidazo[2,1-b][1,3]thiazol-5-yl]-N-{1-[(4-fluorophenyl)sulfonyl]piperidin-4-yl}pyrimidin-2-amine], the inhibition at 10 µM amounted to 48%.

`CCNC(=O)N1CCC(Nc2nccc(-c3c(-c4ccc(F)c(F)c4)nc4sccn34)n2)CC1` [Example 218, 4-({4-[6-(3,4-difluorophenyl)imidazo[2,1-b][1,3]thiazol-5-yl]pyrimidin-2-yl}amino)-N-ethylpiperidine-1-carboxamide]: the IC50 (read-out: Mutant B-RAF IC50) amounted to 1.22 µM.

Regarding `Cc1cn2c(-c3ccnc(NC4CCN(S(=O)(=O)c5ccc(F)cc5)CC4)n3)c(-c3ccc(F)cc3)nc2s1` [Example 219, 4-[6-(4-fluorophenyl)-2-methylimidazo[2,1-b][1,3]thiazol-5-yl]-N-{1-[(4-fluorophenyl)sulfonyl]piperidin-4-yl}pyrimidin-2-amine], the IC50 (read-out: Mutant B-RAF IC50) came to 0.051 µM.

The values are drawn from patent US7501430B2 (ArQule, Inc., priority 2006, dated 2009).
